Laboratory results from patent US20240140975A1, “ANTIVIRAL APPLICATION OF NUCLEOSIDE ANALOG OR COMBINATION FORMULATION CONTAINING NUCLEOSIDE ANALOG” (priority 2020, published 2024).
Where two headings read alike, the source gives them in different places.

Columns and labels:
[1] = test system: 2019 novel coronavirus (SARS-CoV-2); test: microbe, parasite or virus in culture; format: cell-based; conditions: for inhibition at 5 µM: read-out: Inhibition Rate (5 μM); for inhibition at 10 µM: read-out: Inhibition Rate (10 μM)
[2] = target: RNA-dependent RNA polymerase (RdRp) of 2019 novel coronavirus (SARS-CoV-2) (Severe acute respiratory syndrome coronavirus 2 (2019-nCoV) (SARS-CoV-2), UniProt P0DTD1); test: Inhibition of RdRp of novel coronavirus, fluorescence method; format: biochemical; conditions: for inhibition of the activity of RdRp (in words): RdRp of novel coronavirus
Experimental: According to the method reported in the literature (Virus Genes, 2015, 50:498-504), the inhibitory activity of the compound of the invention on RNA-dependent RNA polymerase (RdRp) of 2019 novel coronavirus (SARS-CoV-2) was determined using the fluorescence method: after the solution of the novel coronavirus RdRp, substrate, compound solution, buffer solution, etc were co-incubated for 1 hour, fluorescent DNA binding dye was added. 10 minutes later, data collection was carried out and the inhibitory activities of the compounds on RdRp were determined.

[3] = test system: respiratory syncytial virus (RSV); test: Cytopathic effect (CPE) assay, RSV in HEp-2; format: cell-based; conditions: human respiratory syncytial virus, HEp-2 cells
in vitro [4] = conditions: human
[5] = test system: porcine epidemic diarrhea virus (PEDV); test: Anti-porcine epidemic diarrhea virus (PEDV) activity test in Vero cells, fluorescence quantitative PCR; format: cell-based; conditions: 36 h
[6] = test system: dengue fever virus (DENV); test: Dengue virus plaque reduction test in Vero cells; format: cell-based; conditions: for inhibition at 5 µM: Dengue virus, read-out: DENV (Vero) 5 μM (inhibition rate), 5 μM, plaque reduction
in vitro [7] = conditions: human; remark: listed apart in the source
[8] = test system: human coronavirus OC43 (HCoV OC43); test: Cytopathic effect (CPE) assay, HCoV OC43 in Huh7; format: cell-based; conditions: Betacoronavirus 1, OC43, Huh-7, Huh7 cells
Experimental: The inhibitory effects of compounds on the replication of respiratory syncytial virus (RSV), human coronavirus OC43, influenza A virus, Zika virus (Zika) were tested using cytopathic effect (CPE) assay.
Experimental cells were inoculated in 96-well cell culture plate at a certain cell density, and cultured in an incubator (5% CO2, 37° C.) overnight. Compounds and viruses were added on the second day. […] Then cell viability of each well was detected using Cell Titer-Glo or CCK-8. […] The cytotoxicity test method was the same as the corresponding antiviral test method without virus infection.
The antiviral activity and cytotoxicity of the compounds are respectively indicated by the inhibition rate (%) of compounds on virus-induced cellular viral effects and cell viability (%). Calculating formulas are as follows:
Inhibition rate (%)=(reading value of test well—average value of virus control)/(average value of cell control—average value of virus control)×100;
EC50 and CC50 value are calculated by Prism software, and the inhibition curve fitting method is “log (inhibitor) vs. response—Variable slope”.

in vivo = conditions: male, CD-1, mouse, po, 50 mg/kg
[9] = Pharmacokinetic evaluation in mice; conditions: male, CD-1, mouse, in vivo, po, 50 mg/kg
[10] = Severe acute respiratory syndrome coronavirus 2, Vero C1008, 24 h, 5 μM, Vero E6 cells, 24 h p.i.
[11] = Severe acute respiratory syndrome coronavirus 2, Vero C1008, 24 h, 10 μM, Vero E6 cells, 24 h p.i.
[12] = Severe acute respiratory syndrome coronavirus 2, Vero C1008, Vero E6 cells, 24 h p.i., read-out: EC50
[13] = Porcine epidemic diarrhea virus, Vero
[14] = Severe acute respiratory syndrome coronavirus 2, Vero C1008, 24 h

[2H]c1cc([C@]2(C#N)O[C@H](C([2H])([2H])O)[C@@H](OC(=O)[C@@H](N)C(C)C)[C@H]2O)n2ncnc(N)c12 [Compound A215]
inhibition at 5 µM [1, 10]: > 98%

[2H]c1cc([C@]2(C#N)O[C@H](COP(=O)(O)OP(=O)(O)OP(=O)(O)O)[C@@H](O)[C@H]2O)n2ncnc(N)c12 [Compound A106]
inhibition of the activity of RdRp (in words) [2]: significantly inhibit the activity of RdRp

[2H]c1cc([C@]2(C#N)O[C@H](C([2H])([2H])O)[C@@H](OC(=O)C(C)C)[C@H]2O)n2ncnc(N)c12 [Compound A173]
EC50 [3]: 460 nM
CC50 (in vitro [4]): > 10000 nM

[2H]c1cc([C@]2(C#N)O[C@H](C([2H])([2H])OC(=O)[C@@H](N)C(C)C)[C@@H](O)[C@H]2O)n2ncnc(N)c12 [Compound A181]
inhibition at 5 µM [1, 10]: > 98%

N#C[C@@]1(c2cc(I)c3c(N)ncnn23)O[C@H](CO)[C@@H](O)[C@H]1O [Compound A3]
inhibition at 10 µM [1, 11]: < 50%

N#C[C@@]1(c2cc(Cl)c3c(N)ncnn23)O[C@H](CO)[C@@H](O)[C@H]1O [Compound A2]
inhibition at 10 µM [1, 11]: < 50%

CC(C)[C@H](N)C(=O)O[C@H]1[C@@H](O)[C@](C#N)(c2ccc3c(N)ncnn23)O[C@@H]1CO [Compound A212]
inhibition at 5 µM [1, 10]: 99%
inhibition at 10 µM [1, 11]: 99%
EC50 [1, 12]: 110 nM

CO[C@@H]1[C@H](O)[C@@H](CO)O[C@@]1(C#N)c1ccc2c(N)ncnn12 [Compound A221]
EC50 [5, 13]: 1350 nM
inhibition at 5 µM [6]: 51%

CCC(CC)COC(=O)[C@H](C)N[P@](=O)(OC[C@H]1O[C@@](C#N)(c2ccc3c(N)ncnn23)[C@H](O)[C@@H]1O)Oc1ccccc1 [Remdesivir, reference compound]
CC50 (in vitro [7]): 25700 nM
inhibition at 5 µM [6]: 100%
inhibition at 5 µM [1, 10]: 65%
inhibition at 10 µM [1, 11]: 99%
EC50 [1, 12]: 2000 nM
EC50 [8]: 21 nM

[2H]c1cc([C@]2(C#N)O[C@H](CO)[C@@H](OC(=O)[C@@H](N)C(C)C)[C@H]2O)n2ncnc(N)c12 [Compound A213]
CC50 (in vitro [7]): > 10000 nM
EC50 [3]: 760 nM
inhibition at 5 µM [1, 10]: 99%
EC50 [1, 12]: 100 nM
CC50 (in vitro [4]): > 10000 nM
EC50 [8]: 1970 nM

[2H]C([2H])(OC(=O)C(C)C)[C@H]1O[C@@](C#N)(c2ccc3c(N)ncnn23)[C@H](OC(=O)C(C)C)[C@@H]1OC(=O)C(C)C [Compound A171]
inhibition at 5 µM [1, 10]: > 98%

NC(=O)c1nc(F)cnc1O [Favipiravir, reference compound]
inhibition at 5 µM [1, 10]: 0%
inhibition at 10 µM [1, 11]: < 20%

[2H]c1cc([C@]2(C#N)O[C@H](C([2H])([2H])OC(=O)C(C)C)[C@@H](OC(=O)C(C)C)[C@H]2OC(=O)C(C)C)n2ncnc(N)c12 [Compound A196]
inhibition at 5 µM [1, 10]: > 98%

CC(C)[C@H](N)C(=O)OC[C@H]1O[C@@](C#N)(c2ccc3c(N)ncnn23)[C@H](O)[C@@H]1O [Compound A52]
inhibition at 5 µM [1, 10]: > 98%

N#C[C@@]1(c2ccc3c(N)ncnn23)O[C@H](CO)[C@@H](O)[C@H]1O [Compound A216]
EC50 [5]: 1920 nM
inhibition at 5 µM [6]: 24%

[2H]C([2H])(O)[C@H]1O[C@@](C#N)(c2ccc3c(N)ncnn23)[C@H](O)[C@@H]1O [Compound A10]
CC50 (in vitro [7]): > 10000 nM
EC50 [5, 13]: 6 nM
half-life (in vivo): 1.3 h
EC50 [3]: 630 nM
inhibition at 5 µM [1, 10]: 99%
EC50 [1, 12]: 430 nM
CC50 (in vitro [4]): > 10000 nM
EC50 [8]: 1980 nM
AUC(0-inf) [9]: 4620 ng·h/mL
AUC(0-t) [9]: 4550 ng·h/mL
Cmax [9]: 1760 ng/mL
Tmax [9]: 0.8 h

CC(C)C(=O)OC[C@H]1O[C@@](C#N)(c2ccc3c(N)ncnn23)[C@H](O)[C@@H]1O [Compound A50]
EC50 [5]: 2 nM
Inhibition Rate (5 μM) ([1]; 5 μM, Vero E6 cells, 24 h p.i.): 99%
Inhibition Rate (10 μM) ([1]; 10 μM, Vero E6 cells, 24 h p.i.): 99%
EC50 ([1]; Vero E6 cells, 24 h p.i., read-out: EC50): 230 nM

N#C[C@@]1(c2ccc3c(=O)[nH]cnn23)O[C@H](CO)[C@@H](O)[C@H]1O [Compound A4]
inhibition at 10 µM [1, 11]: < 50%

[2H]c1cc([C@]2(C#N)O[C@H](CO)[C@@H](OC(=O)C(C)C)[C@H]2O)n2ncnc(N)c12 [Compound A144]
CC50 (in vitro [7]): > 10000 nM
EC50 [5, 13]: < 100 nM
EC50 [3]: 470 nM
inhibition at 5 µM [1, 10]: 99%
EC50 [1, 12]: 240 nM
CC50 (in vitro [4]): > 10000 nM
EC50 [8]: 1880 nM

N#C[C@@]1(c2cc(F)c3c(N)ncnn23)O[C@H](CO)[C@@H](O)[C@H]1O [Compound A1]
inhibition at 5 µM [1, 10]: 80%
inhibition at 10 µM [1, 11]: 97%

CCC(CC)COC(=O)[C@H](C)N[P@](=O)(OC[C@H]1O[C@@](C#N)(c2cc(F)c3c(N)ncnn23)[C@H](O)[C@@H]1O)Oc1ccccc1 [Compound A84]
inhibition at 10 µM [1, 14]: 82%

[2H]c1cc([C@]2(C#N)O[C@H](C([2H])([2H])OP(=O)(O)OP(=O)(O)OP(=O)(O)O)[C@@H](O)[C@H]2O)n2ncnc(N)c12 [Compound A198]
inhibition of the activity of RdRp (in words) [2]: significantly inhibit the activity of RdRp

[2H]C([2H])(OC(=O)C(C)C)[C@H]1O[C@@](C#N)(c2ccc3c(N)ncnn23)[C@H](O)[C@@H]1O [Compound A75]
EC50 [3]: 490 nM
inhibition at 5 µM [1, 10]: 99%
CC50 (in vitro [4]): > 10000 nM

Nc1ncnn2c([C@]3(C4CC4)O[C@H](CO)[C@@H](O)[C@H]3O)ccc12 [Compound A28]
EC50 [5, 13]: 1100 nM
inhibition at 5 µM [6]: 6%

[2H]C([2H])(OP(=O)(O)OP(=O)(O)OP(=O)(O)O)[C@H]1O[C@@](C#N)(c2ccc3c(N)ncnn23)[C@H](O)[C@@H]1O [Compound A107]
inhibition of the activity of RdRp (in words) [2]: significantly inhibit the activity of RdRp

CC(C)C(=O)OC[C@H]1O[C@@](C#N)(c2ccc3c(N)ncnn23)[C@H](OC(=O)C(C)C)[C@@H]1OC(=O)C(C)C [Compound A131]
EC50 [5, 13]: < 100 nM
inhibition at 5 µM [1, 10]: > 98%

N#C[C@@]1(c2cc(F)c3c(N)ncnn23)O[C@H](COP(=O)(O)OP(=O)(O)OP(=O)(O)O)[C@@H](O)[C@H]1O [Compound A102]
IC50 ([2]; RdRp of 2019 novel coronavirus): 1000 to 10000 nM
inhibition of the activity of RdRp (in words) [2]: significantly inhibit the activity of RdRp

N#C[C@@]1(c2ccc3c(N)ncnn23)O[C@H](COP(=O)(O)OP(=O)(O)OP(=O)(O)O)[C@@H](O)[C@H]1O [Compound A109]
EC50 [1, 14]: 580 nM
inhibition at 5 µM [1, 14]: 99%
inhibition at 10 µM [1, 14]: 99%

[2H]c1cc([C@]2(C#N)O[C@H](C([2H])([2H])OC(=O)C(C)C)[C@@H](O)[C@H]2O)n2ncnc(N)c12 [Compound A180]
inhibition at 5 µM [1, 10]: > 98%

[2H]c1cc([C@]2(C#N)O[C@H](COC(=O)[C@@H](N)C(C)C)[C@@H](O)[C@H]2O)n2ncnc(N)c12 [Compound A72]
EC50 [3]: 770 nM
inhibition at 5 µM [1, 10]: 99%
CC50 (in vitro [4]): > 10000 nM

[2H]c1cc([C@]2(C#N)O[C@H](C([2H])([2H])O)[C@@H](OC(=O)C(C)C)[C@H]2O)n2ncnc(N)c12 [Compound A188]
inhibition at 5 µM [1, 10]: > 98%

[2H]C([2H])(O)[C@H]1O[C@@](C#N)(c2ccc3c(N)ncnn23)[C@H](O)[C@@H]1OC(=O)[C@@H](N)C(C)C [Compound A214]
inhibition at 5 µM [1, 10]: 99%
EC50 [1, 12]: 110 nM

NC(=O)[C@@]1(c2ccc3c(N)ncnn23)O[C@H](CO)[C@@H](O)[C@H]1O [Compound A112]
inhibition at 10 µM [1, 11]: < 50%

[2H]C([2H])(O)[C@H]1O[C@@](C#N)(c2cc(F)c3c(N)ncnn23)[C@H](O)[C@@H]1O [Compound A12]
inhibition at 5 µM [1, 10]: > 98%

[2H]C([2H])(OC(=O)[C@@H](N)C(C)C)[C@H]1O[C@@](C#N)(c2ccc3c(N)ncnn23)[C@H](O)[C@@H]1O [Compound A77]
inhibition at 5 µM [1, 10]: > 98%

NC(=O)c1ncn([C@@H]2O[C@H](CO)[C@@H](O)[C@H]2O)n1 [Ribavirin, reference compound]
DENV (Vero) value printed without unit ([6]; column head 5 μM, no % printed): 17.4

[2H]C([2H])(O)[C@H]1O[C@@](C#N)(c2ccc3c(N)ncnn23)[C@H](O)[C@@H]1OC(=O)C(C)C [Compound A164]
inhibition at 5 µM [1, 10]: 99%
EC50 [1, 12]: 270 nM
